Assay results as given in patent publication US20050009894A1 (Aventis Pharma S.A., priority 2001, published 2005).

biological target: T1, human KDR enzyme (Homo sapiens, UniProt P35968); assay: Phosphorylation of the substrate PLCγ by the enzyme KDR in vitro (flashplate technique); type: biochemical; conditions: Table VII, degrees of activity by IC50 range; read-out: Activity
T1 construct: The cytoplasmic domain of human KDR enzyme is cloned in the form of a GST fusion; GST; made in house; host or cells: SF21 insect cells (baculovirus, pFastBac)
In short: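 GST-fused human KDR cytoplasmic domain (Sf21 baculovirus, ~60% pure; 100 ng/well) phosphorylating 2 μg GST-PLCγ SH2-SH3 fragment in MOPS pH 7.2 with MgCl2/MnCl2, 1 h at 37° C. Started with γ33P-ATP plus cold ATP (2 μM in start solution); flashplate radioactivity. % inhibition vs no-compound control; IC50 from dose-response curves.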

T1 sequence (P35968 786-1356 limits assumed): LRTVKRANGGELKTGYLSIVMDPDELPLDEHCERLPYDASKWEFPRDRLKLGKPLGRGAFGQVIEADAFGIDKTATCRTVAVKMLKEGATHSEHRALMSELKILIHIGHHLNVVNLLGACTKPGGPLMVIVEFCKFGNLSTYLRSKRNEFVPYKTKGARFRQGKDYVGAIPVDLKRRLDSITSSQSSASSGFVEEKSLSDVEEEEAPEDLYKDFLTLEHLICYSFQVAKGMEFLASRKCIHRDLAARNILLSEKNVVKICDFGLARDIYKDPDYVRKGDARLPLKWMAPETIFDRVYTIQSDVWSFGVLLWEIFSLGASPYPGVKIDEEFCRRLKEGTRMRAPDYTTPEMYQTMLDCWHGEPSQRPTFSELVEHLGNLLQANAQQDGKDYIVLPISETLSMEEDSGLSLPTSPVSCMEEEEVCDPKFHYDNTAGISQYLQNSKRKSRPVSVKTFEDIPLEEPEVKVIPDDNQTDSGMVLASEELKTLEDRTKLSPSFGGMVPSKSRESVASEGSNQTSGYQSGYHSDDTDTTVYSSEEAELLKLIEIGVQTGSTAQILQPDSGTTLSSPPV

First: Clc1ccc(-c2ccc3nc(-c4[nH]nc5ccccc45)[nH]c3c2)cc1Cl [Example 123, 3-[6-(3,4-Dichloro-phenyl)-1H-benzoimidazol-2-yl]-2H-indazole]
Second: CC(C)c1ccc(-c2ccc3nc(-c4[nH]nc5ccccc45)[nH]c3c2)cc1 [Example 144, 3-[6-(4-Isopropyl-phenyl)-1H-benzoimidazol-2-yl]-2H-indazole]
The IC50 of the first is higher: greater than 3 µM for the first, 0.3 to 3 µM for the second. The second is the more potent here.

`FC(F)(F)Oc1ccc(-c2ccc3nc(-c4[nH]nc5ccccc45)[nH]c3c2)cc1` [Example 124, 3-[6-(4-Trifluoromethoxy-phenyl)-1H-benzoimidazol-2-yl]-2H-indazole] and `FC(F)(F)Oc1cccc(-c2ccc3nc(-c4[nH]nc5ccccc45)[nH]c3c2)c1` [Example 136, 3-[6-(3-Trifluoromethoxy-phenyl)-1H-benzoimidazol-2-yl]-2H-indazole] cannot be ordered by IC50: greater than 3 µM for the first, greater than 3 µM for the second.

`CC(=O)c1ccc(-c2ccc3nc(-c4[nH]nc5ccccc45)[nH]c3c2)cc1` [Example 125, 1-{4-[2-(2H-Indazol-3-yl)-3H-benzoimidazol-5-yl]-phenyl}-ethanone] and `CC(=O)c1cccc(-c2ccc3nc(-c4[nH]nc5ccccc45)[nH]c3c2)c1` [Example 129, 1-{3-[2-(2H-Indazol-3-yl)-3H-benzoimidazol-5-yl]-phenyl}-ethanone] cannot be ordered by IC50: greater than 3 µM for the first, greater than 3 µM for the second.

`c1ccc2sc(-c3ccc4nc(-c5[nH]nc6ccccc56)[nH]c4c3)cc2c1` [Example 126, 3-(6-Benzo[b]thiophen-2-yl-1H-benzoimidazol-2-yl)-2H-indazole] and `c1ccc2c(-c3nc4ccc(-c5csc6ccccc56)cc4[nH]3)[nH]nc2c1` [Example 132, 3-(6-Benzo[b]thiophen-3-yl-1H-benzoimidazol-2-yl)-2H-indazole] cannot be ordered by IC50: greater than 3 µM for the first, greater than 3 µM for the second.

`COc1cc(-c2ccc3nc(-c4[nH]nc5ccccc45)[nH]c3c2)cc(OC)c1OC` [Example 127, 3-[6-(3,4,5-Trimethoxy-phenyl)-1H-benzoimidazol-2-yl]-2H-indazole] and `Cc1cc(F)ccc1-c1ccc2nc(-c3[nH]nc4ccccc34)[nH]c2c1` [Example 137, 3-[6-(4-Fluoro-2-methyl-phenyl)-1H-benzoimidazol-2-yl]-2H-indazole] fall in the same range of IC50: 0.3 to 3 µM for the first, 0.3 to 3 µM for the second.

`CC(=O)c1ccc(-c2ccc3nc(-c4[nH]nc5ccccc45)[nH]c3c2)s1` [Example 128, 1-{5-[2-(2H-Indazol-3-yl)-3H-benzoimidazol-5-yl]-thiophen-2-yl}-ethanone] and `c1coc(-c2ccc3nc(-c4[nH]nc5ccccc45)[nH]c3c2)c1` [Example 142, 3-(6-Furan-2-yl-1H-benzoimidazol-2-yl)-2H-indazole] fall in the same range of IC50: 0.3 to 3 µM for the first, 0.3 to 3 µM for the second.

`c1ccc(COc2ccc(-c3ccc4nc(-c5[nH]nc6ccccc56)[nH]c4c3)cc2)cc1` [Example 130, 3-[6-(4-Benzyloxy-phenyl)-1H-benzoimidazol-2-yl]-2H-indazole] and `c1ccc(COc2cccc(-c3ccc4nc(-c5[nH]nc6ccccc56)[nH]c4c3)c2)cc1` [Example 143, 3-[6-(3-Benzyloxy-phenyl)-1H-benzoimidazol-2-yl]-2H-indazole] cannot be ordered by IC50: greater than 3 µM for the first, greater than 3 µM for the second.

Compared with `Fc1cc(-c2ccc3nc(-c4[nH]nc5ccccc45)[nH]c3c2)ccc1-c1ccccc1` [Example 131, 3-[6-(2-Fluoro-biphenyl-4-yl)-1H-benzoimidazol-2-yl]-2H-indazole], `Fc1ccc(-c2ccc3nc(-c4[nH]nc5ccccc45)[nH]c3c2)c(F)c1` [Example 135, 3-[6-(2,4-Difluoro-phenyl)-1H-benzoimidazol-2-yl]-2H-indazole] is lower in IC50: greater than 3 µM for the first, 0.3 to 3 µM for the second.

`OCc1cccc(-c2ccc3nc(-c4[nH]nc5ccccc45)[nH]c3c2)c1` [Example 133, {3-[2-(2H-Indazol-3-yl)-3H-benzoimidazol-5-yl]-phenyl}-methanol] and `OCc1ccc(-c2ccc3nc(-c4[nH]nc5ccccc45)[nH]c3c2)cc1` [Example 141, {4-[2-(2H-Indazol-3-yl)-3H-benzoimidazol-5-yl]-phenyl}-methanol] fall in the same range of IC50: 0.3 to 3 µM for the first, 0.3 to 3 µM for the second.

`CCSc1ccc(-c2ccc3nc(-c4[nH]nc5ccccc45)[nH]c3c2)cc1` [Example 134, 3-[6-(4-Ethylsulfanyl-phenyl)-1H-benzoimidazol-2-yl]-2H-indazole] and `CS(=O)(=O)c1ccc(-c2ccc3nc(-c4[nH]nc5ccccc45)[nH]c3c2)cc1` [Example 145, 3-[6-(4-Methanesulfonyl-phenyl)-1H-benzoimidazol-2-yl]-2H-indazole] cannot be ordered by IC50: greater than 3 µM for the first, greater than 3 µM for the second.

`Fc1ccc(/C=C/c2ccc3nc(-c4[nH]nc5ccccc45)[nH]c3c2)cc1` [Example 138, 3-{6-[2-(4-Fluoro-phenyl)-vinyl]-1H-benzoimidazol-2-yl}-2H-indazole] and `Clc1ccc(/C=C/c2ccc3nc(-c4[nH]nc5ccccc45)[nH]c3c2)cc1` [Example 139, 3-{6-[2-(4-Chloro-phenyl)-vinyl]-1H benzoimidazol-2-yl}-2H-indazole] cannot be ordered by IC50: greater than 3 µM for the first, greater than 3 µM for the second.

`O=C(O)CCc1ccc(-c2ccc3nc(-c4[nH]nc5ccccc45)[nH]c3c2)cc1` [Example 140, 3-{4-[2-(2H-Indazol-3-yl)-3H-benzoimidazol-5-yl]-phenyl}-propionic acid] and `O=C(NCc1ccc(-c2ccc(Cl)cc2)cc1)c1ccc2[nH]c(-c3n[nH]c4ccccc34)nc2c1` [Example 162, 2-(1H-Indazol-3-yl)-1H-benzoimidazole-5-carboxylic acid (4′-chloro-biphenyl-4-ylmethyl)-amide] cannot be ordered by IC50: greater than 3 µM for the first, greater than 3 µM for the second.

`COc1coc(CNC(=O)c2ccc3[nH]c(-c4n[nH]c5ccccc45)nc3c2)cc1=O` [Example 146] and `O=C(NCc1ccc(F)cc1F)c1ccc2[nH]c(-c3n[nH]c4ccccc34)nc2c1` [Example 155, 2-(1H-Indazol-3-yl)-1H-benzoimidazole-5-carboxylic acid 2,4-difluoro-benzylamide] fall in the same range of IC50: 0.3 to 3 µM for the first, 0.3 to 3 µM for the second.

`CC(=O)Nc1ccc(CNC(=O)c2ccc3[nH]c(-c4n[nH]c5ccccc45)nc3c2)cc1` [Example 147, 2-(1H-Indazol-3-yl)-1H-benzoimidazole-5-carboxylic acid 4-acetylamino-benzylamide] and `O=C(NCc1ccc(F)c(F)c1)c1ccc2[nH]c(-c3n[nH]c4ccccc34)nc2c1` [Example 160, 2-(1H-Indazol-3-yl)-1H-benzoimidazole-5-carboxylic acid 3,4-difluoro-benzylamide] fall in the same range of IC50: 0.3 to 3 µM for the first, 0.3 to 3 µM for the second.

`CNC(=O)c1ccc2[nH]c(-c3n[nH]c4ccccc34)nc2c1` [Example 148, 2-(1H-Indazol-3-yl)-1H-benzoimidazole-5-carboxylic acid methylamide] and `CC(C)NC(=O)c1ccc2[nH]c(-c3n[nH]c4ccccc34)nc2c1` [Example 149, 2-(1H-Indazol-3-yl)-1H-benzoimidazole-5-carboxylic acid isopropylamide] fall in the same range of IC50: 0.3 to 3 µM for the first, 0.3 to 3 µM for the second.

`O=C(c1ccc2[nH]c(-c3n[nH]c4ccccc34)nc2c1)N1CCOCC1` [Example 150, [2-(1H-Indazol-3-yl)-1H-benzoimidazol-5-yl]-morpholin-4-yl-methanone] and `CN1CCN(C(=O)c2ccc3[nH]c(-c4n[nH]c5ccccc45)nc3c2)CC1` [Example 151, [2-(1H-Indazol-3-yl)-1H-benzoimidazol-5-yl]-(4-methyl-piperazin-1-yl)-methanone] fall in the same range of IC50: 0.3 to 3 µM for the first, 0.3 to 3 µM for the second.

`CN(Cc1ccccc1)C(=O)c1ccc2[nH]c(-c3n[nH]c4ccccc34)nc2c1` [Example 152, 2-(1H-Indazol-3-yl)-1H-benzoimidazole-5-carboxylic acid benzyl-methyl-amide] and `O=C(NCc1ccccc1F)c1ccc2[nH]c(-c3n[nH]c4ccccc34)nc2c1` [Example 154, 2-(1H-Indazol-3-yl)-1H-benzoimidazole-5-carboxylic acid 2-fluoro-benzylamide] fall in the same range of IC50: 0.3 to 3 µM for the first, 0.3 to 3 µM for the second.

`O=C(NCc1cccc([N+](=O)[O-])c1)c1ccc2[nH]c(-c3n[nH]c4ccccc34)nc2c1` [Example 153, 2-(1H-Indazol-3-yl)-1H-benzoimidazole-5-carboxylic acid 3-nitro-benzylamide] and `O=C(NCc1c(F)cccc1F)c1ccc2[nH]c(-c3n[nH]c4ccccc34)nc2c1` [Example 156, 2-(1H-Indazol-3-yl)-1H-benzoimidazole-5-carboxylic acid 2,6-difluoro-benzylamide] fall in the same range of IC50: 0.3 to 3 µM for the first, 0.3 to 3 µM for the second.

Compared with `O=C(NCc1ccc(Br)cc1F)c1ccc2[nH]c(-c3n[nH]c4ccccc34)nc2c1` [Example 157, 2-(1H-Indazol-3-yl)-1H-benzoimidazole-5-carboxylic acid 4-bromo-2-fluoro-benzylamide], `O=C(NCc1ccc(Cl)cc1F)c1ccc2[nH]c(-c3n[nH]c4ccccc34)nc2c1` [Example 158, 2-(1H-Indazol-3-yl)-1H-benzoimidazole-5-carboxylic acid 4-chloro-2-fluoro-benzylamide] is higher in IC50: less than 0.3 µM for the first, 0.3 to 3 µM for the second.

`O=C(NCc1ccc(Br)cc1F)c1ccc2[nH]c(-c3n[nH]c4ccccc34)nc2c1` [Example 159, 2-(1H-Indazol-3-yl)-1H-benzoimidazole-5-carboxylic acid 4-bromo-2-fluoro-benzylamide] and `O=C(NCc1cc(F)c(F)c(F)c1)c1ccc2[nH]c(-c3n[nH]c4ccccc34)nc2c1` [Example 161, 2-(1H-Indazol-3-yl)-1H-benzoimidazole-5-carboxylic acid 3,4,5-trifluoro-benzylamide] fall in the same range of IC50: 0.3 to 3 µM for the first, 0.3 to 3 µM for the second.

`O=C(NCc1ccc(-c2cc(Cl)cc(Cl)c2)cc1)c1ccc2[nH]c(-c3n[nH]c4ccccc34)nc2c1` [Example 163, 2-(1H-Indazol-3-yl)-1H-benzoimidazole-5-carboxylic acid (3′,5′-dichloro-biphenyl-4-ylmethyl)-amide] and `O=C(NCc1ccc(-c2ccc(F)cc2)cc1)c1ccc2[nH]c(-c3n[nH]c4ccccc34)nc2c1` [Example 164] cannot be ordered by IC50: greater than 3 µM for the first, greater than 3 µM for the second.
